The numbers were not newly measured in patent publication US20250368627A1, “PYRAZOLESULFONAMIDES AS ANTITUMOR AGENTS” (Peloton Therapeutics, Inc., a fully owned subsidiary of …, priority 2019, published 2025), which cites them from elsewhere.

For data set [1] the following is noted: cited from earlier work.
The conditions of data set [2]: cited from earlier work. The source holds these as a separate data set.

Turning to `Cc1ccc(NS(=O)(=O)c2cccc(C#N)c2)c2[nH]cc(C#N)c12` [Compound E7820, E7820], the “measured drug concentration available (free drug)” value in data set [1] (according to the free drug principle) was “less than 1%”. Moreover, the plasma protein binding entry in data set [1] is “greater than 99%”. Also, in data set [2] (clinical dosing, indisulam 700 mg/m^2 IV every 3 weeks, E7820 100 mg q.d. oral), the treatment-induced myelosuppressive effect entry is given as “same myelosuppressive effects”. Moreover, the oral bioavailability entry in data set [2] (in vivo, po) is listed as “good oral bioavailability”.
